Assay results taken from the NIST ThermoML archive (doi:10.1016/j.jct.2017.02.004).

Assays:
[1] = 100 kPa, Liquid; for speed of sound: Frequency=3 MHz, Single path-length method; for mass density: Vibrating tube method
[2] = mn = molality of the nth substance listed, in mol/kg; conditions: 100 kPa, Liquid; for speed of sound: Frequency=3 MHz, Single path-length method; for mass density: Vibrating tube method

CCCCn1cc[n+](C)c1.F[B-](F)(F)F [1-butyl-3-methylimidazolium tetrafluoroborate]
[1]
Conditions | mass density [kg/m3] | speed of sound [m/s]
288.15 K | 1209.05 | 1591
293.15 K | 1205.5 | 1578.9
298.15 K | 1201.96 | 1566.9
303.15 K | 1198.42 | 1555.1
308.15 K | 1194.87 | 1543.4

CCCCn1cc[n+](C)c1.F[B-](F)(F)F [1-butyl-3-methylimidazolium tetrafluoroborate] + [Cl-].[Li+]
[2], m2 = 0
Conditions | mass density [kg/m3] | speed of sound [m/s]
288.15 K | 1209.05 | 1591
293.15 K | 1205.5 | 1578.9
298.15 K | 1201.96 | 1566.9
303.15 K | 1198.42 | 1555.1
308.15 K | 1194.87 | 1543.4

[Cl-].[Li+] [lithium chloride] + CCCCn1cc[n+](C)c1.F[B-](F)(F)F
[2]
Conditions | mass density, 288.15 K [kg/m3] | mass density, 293.15 K [kg/m3] | mass density, 298.15 K [kg/m3] | mass density, 303.15 K [kg/m3] | mass density, 308.15 K [kg/m3] | speed of sound, 288.15 K [m/s] | speed of sound, 293.15 K [m/s] | speed of sound, 298.15 K [m/s] | speed of sound, 303.15 K [m/s] | speed of sound, 308.15 K [m/s]
m1 = 0.0999 | 1211.1 | 1207.56 | 1204.03 | 1200.53 | 1196.98 | 1595.5 | 1583.3 | 1571.2 | 1559.4 | 1547.7
m1 = 0.1499 | 1212.17 | 1208.61 | 1205.08 | 1201.61 | 1198.07 | 1597.7 | 1585.4 | 1573.3 | 1561.4 | 1549.7
m1 = 0.2 | 1213.24 | 1209.68 | 1206.14 | 1202.69 | 1199.16 | 1599.7 | 1587.3 | 1575.2 | 1563.3 | 1551.5
m1 = 0.2501 | 1214.33 | 1210.73 | 1207.22 | 1203.79 | 1200.27 | 1601.7 | 1589.2 | – | 1565.1 | 1553.2
m1 = 0.3003 | 1215.46 | 1211.88 | 1208.31 | 1204.94 | 1201.37 | 1603.5 | 1591 | 1578.7 | 1566.7 | 1554.9
m1 = 0.3498 | 1216.56 | 1212.93 | 1209.36 | 1206.04 | 1202.5 | 1605.3 | 1592.6 | 1580.3 | 1568.2 | 1556.2
